Laboratory results: ChEMBL document CHEMBL4732160, “Design and synthesis of 7-O-1,2,3-triazole hesperetin derivatives to relieve inflammation of acute liver injury in mice” (Eur J Med Chem, 2021)
Blank lines part the entries; values can stand above or below the compound they belong to. Active and inactive are the calls of the source. The rule behind the calls is not given here.

Legend:
RAW264.7 [1] = experiment: Antiinflammatory activity in mouse RAW264.7 cells assessed as inhibition of LPS-induced NO production at 10 uM preincubated for 2 hrs followed by LPS stimulation and measured after 24 hrs by Griess method relative to control; type: functional; conditions: time 26 hrs
RAW264.7 [2] = experiment: Antiinflammatory activity in mouse RAW264.7 cells assessed as inhibition of LPS-induced NO production preincubated for 2 hrs followed by LPS stimulation and measured after 24 hrs by Griess method; type: functional, cell-based
[3] = Cytotoxicity against mouse RAW264.7 cells assessed as cell viability at 40 uM measured after 24 hrs by MTT assay relative to control; type: cell-based
RAW264.7 [4] = experiment: Cytotoxicity against mouse RAW264.7 cells assessed as reduction in cell viability at 60 uM measured after 24 hrs by MTT assay; type: cell-based; conditions: raw264.7, 24 h
RAW264.7 [5] = experiment: Antiinflammatory activity in mouse RAW264.7 cells assessed as inhibition of LPS-induced TNFalpha production at 10 uM preincubated for 1 hr followed by LPS stimulation and measured after 22 hrs by ELISA; type: functional, cell-based; conditions: time 23.0 hrs
RAW264.7 [6] = experiment: Antiinflammatory activity in mouse RAW264.7 cells assessed as inhibition of LPS-induced IL1beta production at 10 uM preincubated for 1 hr followed by LPS stimulation and measured after 22 hrs by ELISA; type: functional, cell-based; conditions: time 23.0 hrs
RAW264.7 [7] = experiment: Antiinflammatory activity in mouse RAW264.7 cells assessed as inhibition of LPS-induced IL6 production at 10 uM preincubated for 1 hr followed by LPS stimulation and measured after 22 hrs by ELISA; type: functional, cell-based; conditions: time 23.0 hrs
RAW264.7 [8] = experiment: Antiinflammatory activity in mouse RAW264.7 cells assessed as inhibition of LPS-induced TNFalpha production preincubated for 1 hr followed by LPS stimulation and measured after 22 hrs by ELISA; type: functional, cell-based; conditions: dose 1.25-20 µM, time 23.0 hrs
RAW264.7 [9] = experiment: Antiinflammatory activity in mouse RAW264.7 cells assessed as inhibition of LPS-induced IL1beta production preincubated for 1 hr followed by LPS stimulation and measured after 22 hrs by ELISA; type: functional, cell-based; conditions: dose 1.25-20 µM, time 23.0 hrs
RAW264.7 [10] = experiment: Antiinflammatory activity in mouse RAW264.7 cells assessed as inhibition of LPS-induced IL6 production preincubated for 1 hr followed by LPS stimulation and measured after 22 hrs by ELISA; type: functional, cell-based; conditions: dose 1.25-20 µM, time 23.0 hrs
RAW264.7 [11] = experiment: Antiinflammatory activity in mouse RAW264.7 cells assessed as inhibition of LPS-induced iNOS expression preincubated for 1 hr followed by LPS stimulation and measured after 24 hrs by Western blot analysis; type: functional, cell-based; conditions: dose 5-20 µM, time 25.0 hrs
RAW264.7 [12] = experiment: Antiinflammatory activity in mouse RAW264.7 cells assessed as inhibition of LPS-induced COX2 expression preincubated for 1 hr followed by LPS stimulation and measured after 24 hrs by Western blot analysis; type: functional, cell-based; conditions: dose 5-20 µM, time 25.0 hrs
RAW264.7 [13] = experiment: Inhibition of LPS-induced NFkappaB activation in mouse RAW264.7 cells assessed as reduction in IkappaBalpha phosphorylation at 5 to 20 uM preincubated for 1 hr followed by LPS-stimulation and measured after 0.5 hrs by Western blot analysis; type: cell-based; conditions: dose 5-20 µM, time 1.5 hrs
RAW264.7 [14] = experiment: Inhibition of LPS-induced NFkappaB activation in mouse RAW264.7 cells assessed as reduction in p65 nuclear translocation preincubated for 1 hr followed by LPS-stimulation and measured after 0.5 hrs by Western blot analysis; type: cell-based; conditions: dose 5-20 µM, time 1.5 hrs
RAW264.7 [15] = experiment: Antiinflammatory activity in mouse RAW264.7 cells assessed as inhibition of LPS-induced ROS production preincubated for 1 hr followed by LPS stimulation and measured after 24 hrs by DCFH-DA staining based flow cytometry; type: functional, cell-based; conditions: dose 2.5-10 µM, time 25.0 hrs
Mus musculus [16] = experiment: Antiinflammatory activity in CCl4-induced C57BL/6J mouse model of liver injury assessed as reduction in liver damage at 50 to 200 mg/kg administered daily for 7 days followed by CCl4 addition and measured after 24 hrs by H and E staining based microscopic analysis; type: functional, organism-based; conditions: dose 50-200 mg/kg, time 8.0 day
Mus musculus [17] = experiment: Antiinflammatory activity in CCl4-induced C57BL/6J mouse model of liver injury assessed as reduction in ALT level administered daily for 7 days followed by CCl4 addition and measured after 24 hrs; type: functional, organism-based; conditions: dose 50-200 mg/kg, time 8.0 day
Mus musculus [18] = experiment: Antiinflammatory activity in CCl4-induced C57BL/6J mouse model of liver injury assessed as reduction in TNFalpha expression administered daily for 7 days followed by CCl4 addition and measured after 24 hrs by ELISA; type: functional, organism-based; conditions: dose 50-200 mg/kg, time 8.0 day
Mus musculus [19] = experiment: Antiinflammatory activity in CCl4-induced C57BL/6J mouse model of liver injury assessed as reduction in IL1beta expression administered daily for 7 days followed by CCl4 addition and measured after 24 hrs by ELISA; type: functional, organism-based; conditions: dose 50-200 mg/kg, time 8.0 day
Mus musculus [20] = experiment: Antiinflammatory activity in CCl4-induced C57BL/6J mouse model of liver injury assessed as reduction in IL6 expression administered daily for 7 days followed by CCl4 addition and measured after 24 hrs by ELISA; type: functional, organism-based; conditions: dose 50-200 mg/kg, time 8.0 day

SMILES: CCCn1cc(COc2cc(O)c3c(c2)O[C@H](c2ccc(OC)c(O)c2)C/C3=N\O)nn1
- inhibition at 10 µM (RAW264.7 [1]): 67.5%
- IC50 (RAW264.7 [2]): 2.34 µM
- viability at 24 h, 40 µM [3]: 114%
- Activity (RAW264.7 [4]): Non-Toxic
- inhibition (RAW264.7 [5]): Active
- inhibition (RAW264.7 [6]): Active
- inhibition (RAW264.7 [7]): Active
- inhibition (RAW264.7 [8]): Dose-dependent effect
- inhibition (RAW264.7 [9]): Dose-dependent effect
- inhibition (RAW264.7 [10]): Dose-dependent effect
- inhibition (RAW264.7 [11]): Dose-dependent effect
- inhibition (RAW264.7 [12]): Dose-dependent effect
- inhibition (RAW264.7 [13]): Active
- inhibition (RAW264.7 [14]): Dose-dependent effect
- inhibition (RAW264.7 [15]): Dose-dependent effect
- Activity (Mus musculus [16]): Active
- Activity (Mus musculus [17]): Dose-dependent effect
- Activity (Mus musculus [18]): Dose-dependent effect
- Activity (Mus musculus [19]): Dose-dependent effect
- Activity (Mus musculus [20]): Dose-dependent effect

SMILES: CCCCn1cc(COc2cc(O)c3c(c2)O[C@H](c2ccc(OC)c(O)c2)CC3=O)nn1
- inhibition at 10 µM (RAW264.7 [1]): 49.9%
- IC50 (RAW264.7 [2]): 13.9 µM
- viability at 24 h, 40 µM [3]: 118%
- inhibition (RAW264.7 [5]): Active
- inhibition (RAW264.7 [6]): Active
- inhibition (RAW264.7 [7]): Active

SMILES: COc1ccc([C@@H]2C/C(=N\O)c3c(O)cc(OCc4cn(C5CCCC5)nn4)cc3O2)cc1O
- inhibition at 10 µM (RAW264.7 [1]): 63.7%
- IC50 (RAW264.7 [2]): 6.88 µM
- viability at 24 h, 40 µM [3]: 112%
- inhibition (RAW264.7 [5]): Active
- inhibition (RAW264.7 [6]): Active
- inhibition (RAW264.7 [7]): Active

SMILES: COc1ccc([C@@H]2C/C(=N\O)c3c(O)cc(OCc4cn(CC5CC5)nn4)cc3O2)cc1O
- inhibition at 10 µM (RAW264.7 [1]): 67%
- IC50 (RAW264.7 [2]): 6.32 µM
- viability at 24 h, 40 µM [3]: 86%
- inhibition (RAW264.7 [5]): Active
- inhibition (RAW264.7 [6]): Active
- inhibition (RAW264.7 [7]): Active

SMILES: COc1ccc([C@@H]2CC(=O)c3c(O)cc(OCc4cn(C)nn4)cc3O2)cc1O
- inhibition at 10 µM (RAW264.7 [1]): 40%
- IC50 (RAW264.7 [2]): 15.2 µM
- viability at 24 h, 40 µM [3]: 105%
- inhibition (RAW264.7 [5]): Active
- inhibition (RAW264.7 [6]): Active
- inhibition (RAW264.7 [7]): Active

SMILES: COc1ccc([C@@H]2CC(=O)c3c(O)cc(OCc4cn(Cc5ccc(C(F)(F)F)cc5)nn4)cc3O2)cc1O
- inhibition at 10 µM (RAW264.7 [1]): 36.4%
- IC50 (RAW264.7 [2]): 17.7 µM
- viability at 24 h, 40 µM [3]: 66%
- inhibition (RAW264.7 [5]): Active
- inhibition (RAW264.7 [6]): Active
- inhibition (RAW264.7 [7]): Active

SMILES: COc1ccc([C@@H]2CC(=O)c3c(O)cc(OCc4cn(CC(=O)c5ccc(F)cc5)nn4)cc3O2)cc1O
- inhibition at 10 µM (RAW264.7 [1]): 38.5%
- IC50 (RAW264.7 [2]): 15.4 µM
- viability at 24 h, 40 µM [3]: 64%
- inhibition (RAW264.7 [5]): Active
- inhibition (RAW264.7 [6]): Active
- inhibition (RAW264.7 [7]): Active

SMILES: CCCCn1cc(COc2cc(O)c3c(c2)O[C@H](c2ccc(OC)c(O)c2)C/C3=N\O)nn1
- inhibition at 10 µM (RAW264.7 [1]): 56.9%
- IC50 (RAW264.7 [2]): 8.9 µM
- viability at 24 h, 40 µM [3]: 62%
- inhibition (RAW264.7 [5]): Active
- inhibition (RAW264.7 [6]): Active
- inhibition (RAW264.7 [7]): Active

Continued, in another order:

- IC50 (RAW264.7 [2]): 17.8 µM
SMILES: COc1ccc([C@@H]2CC(=O)c3c(O)cc(OCc4cn(Cc5ccc(Cl)cc5)nn4)cc3O2)cc1O
- inhibition at 10 µM (RAW264.7 [1]): 29%
- viability at 24 h, 40 µM [3]: 94%
- inhibition (RAW264.7 [5]): Active
- inhibition (RAW264.7 [6]): Active
- inhibition (RAW264.7 [7]): Active

- IC50 (RAW264.7 [2]): 13.2 µM
SMILES: COc1ccc([C@@H]2CC(=O)c3c(O)cc(OCc4cn(CC(=O)c5ccccc5Cl)nn4)cc3O2)cc1O
- inhibition at 10 µM (RAW264.7 [1]): 34.1%
- viability at 24 h, 40 µM [3]: 99%
- inhibition (RAW264.7 [5]): Active
- inhibition (RAW264.7 [6]): Active
- inhibition (RAW264.7 [7]): Active

- IC50 (RAW264.7 [2]): 13.1 µM
SMILES: COc1ccc([C@@H]2CC(=O)c3c(O)cc(OCc4cn(Cc5ccccc5C)nn4)cc3O2)cc1O
- inhibition at 10 µM (RAW264.7 [1]): 45.7%
- viability at 24 h, 40 µM [3]: 100%
- inhibition (RAW264.7 [5]): Active
- inhibition (RAW264.7 [6]): Active
- inhibition (RAW264.7 [7]): Active

- IC50 (RAW264.7 [2]): 5.71 µM
SMILES: COc1ccc([C@@H]2C/C(=N\O)c3c(O)cc(OCc4cn(Cc5ccccc5F)nn4)cc3O2)cc1O
- inhibition at 10 µM (RAW264.7 [1]): 65.4%
- viability at 24 h, 40 µM [3]: 82%
- inhibition (RAW264.7 [5]): Active
- inhibition (RAW264.7 [6]): Active
- inhibition (RAW264.7 [7]): Active

- IC50 (RAW264.7 [2]): 15.1 µM
SMILES: COc1ccc([C@@H]2CC(=O)c3c(O)cc(OCc4cn(Cc5ccc(F)cc5)nn4)cc3O2)cc1O
- inhibition at 10 µM (RAW264.7 [1]): 41.4%
- viability at 24 h, 40 µM [3]: 101%
- inhibition (RAW264.7 [5]): Active
- inhibition (RAW264.7 [6]): Active
- inhibition (RAW264.7 [7]): Active

- IC50 (RAW264.7 [2]): 14.6 µM
SMILES: COc1ccc([C@@H]2CC(=O)c3c(O)cc(OCc4cn(Cc5ccccc5C#N)nn4)cc3O2)cc1O
- inhibition at 10 µM (RAW264.7 [1]): 43.6%
- viability at 24 h, 40 µM [3]: 114%
- inhibition (RAW264.7 [5]): Active
- inhibition (RAW264.7 [6]): Active
- inhibition (RAW264.7 [7]): Active

- IC50 (RAW264.7 [2]): 9.67 µM
SMILES: CCCn1cc(COc2cc(O)c3c(c2)O[C@H](c2ccc(OC)c(O)c2)CC3=O)nn1
- inhibition at 10 µM (RAW264.7 [1]): 56.4%
- viability at 24 h, 40 µM [3]: 114%
- inhibition (RAW264.7 [5]): Active
- inhibition (RAW264.7 [6]): Active
- inhibition (RAW264.7 [7]): Active

- IC50 (RAW264.7 [2]): 18 µM
SMILES: COc1ccc([C@@H]2C/C(=N\O)c3c(O)cc(OCc4cn(Cc5ccccc5C)nn4)cc3O2)cc1O
- inhibition at 10 µM (RAW264.7 [1]): 22.5%
- viability at 24 h, 40 µM [3]: 83%
- inhibition (RAW264.7 [5]): Active
- inhibition (RAW264.7 [6]): Active
- inhibition (RAW264.7 [7]): Active
